The values below are quoted from earlier work in patent US20190046547A1, “COMPOSITIONS AND METHODS FOR TREATING CHRONIC WOUNDS” (Hackensack University Medical Center, priority 2016, published 2019).

Each structure is given as a SMILES string.

In the data set the test system is infected pneumonectomy cavity. Conditions: single case.

Take `OC[C@H]1O[C@@](CO)(O[C@H]2O[C@H](CO)[C@@H](O)[C@H](O)[C@H]2O)[C@@H](O)[C@@H]1O` [granulated sugar]: the adverse events entry is “severe hyponatremia and acute renal failure”.
